Laboratory results: US5328909A, “Cyclopropenone derivatives” (Mitsubishi Kasei Corporation, priority 1991, dated 1994)
Like-named read-outs stand apart in the source and are kept apart here.

What was measured:
[1] = system: microtubule-associated protein; details: after the brain ischemia; cited from earlier work
[2] = system: brain trauma models of rat; details: cited from earlier work
[3] = system: experimental muscular dystrophy hamster; details: cited from earlier work
[4] = system: aggregation of platelet caused by thrombin; details: cited from earlier work
production of IgE = details: cited from earlier work
[5] = system: rat with enhanced bone destruction by administration of parathyroid hormone; details: cited from earlier work
papain = target: T1, papain (Carica papaya, UniProt P00784); experiment: Thiol protease inhibitory activity against papain (P-3125, Sigma); type: biochemical
T1 sequence (P00784 134-345): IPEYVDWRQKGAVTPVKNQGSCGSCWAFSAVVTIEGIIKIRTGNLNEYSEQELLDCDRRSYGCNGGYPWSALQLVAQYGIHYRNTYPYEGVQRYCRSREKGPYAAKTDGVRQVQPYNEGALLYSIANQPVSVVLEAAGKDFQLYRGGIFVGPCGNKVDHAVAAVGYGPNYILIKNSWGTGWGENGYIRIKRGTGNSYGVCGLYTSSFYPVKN
Protocol: (§1) Inhibitory activity against papain (P-3125, Sigma) and cathepsin B (C-6286, Sigma) was assayed according to the method described in a literature [Biochemical Journal, 201, 189 (1982)]. Capthesin L was purified from rat kidney according to the method in a literature [Journal of Biochemistry, 100, 35 (1986)], and the inhibitory activity against it was assayed in the same manner as described in the above literature for cathepsin B. Further, m-calpain was purified from rat brain according to a known method [Journal of Biological Chemistry, 254, p.3210 (1984)] and the inhibitory activity against it was assayed by a method described in a literature [Journal of Biological Chemistry, 259, 12489 (1984)]. The results are showing in Tables 3 and 4. It is evident from Tables 3 and 4 that the compounds in the present invention have a potent inhibitory activity against thiol proteases such as papain, cathepsin B, cathepsin L, m-calpain or the like.

cathepsin B = target: T2, cathepsin B (Bos taurus, UniProt P07688); experiment: Thiol protease inhibitory activity against cathepsin B (C-6286, Sigma); type: biochemical
T2 construct: purchased Sigma C-6286
Protocol: as §1

cathepsin L = target: T3, cathepsin L (Rattus norvegicus, UniProt P07154); experiment: Thiol protease inhibitory activity against cathepsin L purified from rat kidney; type: biochemical
T3 construct: Capthesin L was purified from rat kidney; from tissue; host or cells: rat kidney
T3 sequence (P07154 114-288 limits assumed): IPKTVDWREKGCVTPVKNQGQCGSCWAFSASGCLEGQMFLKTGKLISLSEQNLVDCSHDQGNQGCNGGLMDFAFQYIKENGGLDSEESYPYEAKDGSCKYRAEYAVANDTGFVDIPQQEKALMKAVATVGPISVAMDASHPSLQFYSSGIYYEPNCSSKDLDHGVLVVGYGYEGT
T3 sequence (P07154 291-334 limits assumed): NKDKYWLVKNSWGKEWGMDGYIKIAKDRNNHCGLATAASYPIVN
Protocol: as §1

m-calpain = target: T4, m-calpain (Rattus norvegicus, UniProt Q07009); experiment: Thiol protease inhibitory activity against m-calpain purified from rat brain; type: biochemical
T4 construct: m-calpain was purified from rat brain; from tissue; host or cells: rat brain
T4 sequence (Q07009 20-700 limits assumed): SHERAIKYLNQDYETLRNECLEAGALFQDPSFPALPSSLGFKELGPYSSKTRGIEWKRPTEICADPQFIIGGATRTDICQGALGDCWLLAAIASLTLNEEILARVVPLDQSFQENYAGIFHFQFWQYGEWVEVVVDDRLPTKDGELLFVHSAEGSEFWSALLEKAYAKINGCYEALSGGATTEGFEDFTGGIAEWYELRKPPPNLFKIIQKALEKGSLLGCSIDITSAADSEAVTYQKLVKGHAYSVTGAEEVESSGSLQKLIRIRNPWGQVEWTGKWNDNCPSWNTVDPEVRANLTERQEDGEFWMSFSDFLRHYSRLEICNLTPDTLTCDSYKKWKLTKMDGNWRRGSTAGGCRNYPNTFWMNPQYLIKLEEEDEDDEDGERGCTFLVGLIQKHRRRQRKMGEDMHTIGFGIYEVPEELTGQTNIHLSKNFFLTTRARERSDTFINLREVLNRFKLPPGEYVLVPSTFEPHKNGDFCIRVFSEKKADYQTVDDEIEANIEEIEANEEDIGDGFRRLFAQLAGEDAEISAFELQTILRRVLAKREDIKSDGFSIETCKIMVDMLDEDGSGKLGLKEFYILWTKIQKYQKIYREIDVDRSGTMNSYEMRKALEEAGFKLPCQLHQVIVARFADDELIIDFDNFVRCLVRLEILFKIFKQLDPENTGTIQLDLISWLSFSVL
T4 sequence (Q64537 1-270 partner): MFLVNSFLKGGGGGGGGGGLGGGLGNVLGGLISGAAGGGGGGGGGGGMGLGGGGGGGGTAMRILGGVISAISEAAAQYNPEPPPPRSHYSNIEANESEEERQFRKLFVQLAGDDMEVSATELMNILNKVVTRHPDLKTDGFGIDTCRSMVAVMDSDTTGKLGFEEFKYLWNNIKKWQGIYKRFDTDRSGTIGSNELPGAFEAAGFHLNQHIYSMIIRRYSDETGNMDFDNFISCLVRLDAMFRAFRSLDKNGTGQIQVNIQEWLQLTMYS
Summary of the method: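 Papain and bovine cathepsin B assayed by a published method; cathepsin L purified from rat kidney and tested as for cathepsin B. m-Calpain purified from rat brain and assayed by a separate published method.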

cataract animal models = details: cited from earlier work
[6] = system: cardiac infarction animal models; details: cited from earlier work
[7] = Acute oral toxicity, rats observed for 7 days; details: rat, in vivo, suspension in 0.5% CMC-Na aqueous solution, SD female and male rats, 7 days observation
Protocol: The LD50 value of the compound (I) prepared in Example 1 is: >2,000 mg/kg.

[8] = Table 3, read-out: IC50 (μM) papain
[9] = Table 3, read-out: IC50 (μM) cathepsin B
[10] = Table 3, rat kidney enzyme, read-out: IC50 (μM) cathepsin L
[11] = Table 3, rat brain enzyme, read-out: IC50 (μM) m-calpain

Row | SMILES | IC50 (papain; [8]) [µM] | IC50 (cathepsin B; [9]) [µM] | IC50 (cathepsin L; [10]) [µM] | IC50 (m-calpain; [11]) [µM] | further results
1 | CC(C)CCNC(=O)[C@H](CC(C)C)NC(=O)[C@H]1O[C@@H]1C(=O)O [E-64-C] | – | – | – | – | degradation of microtubule-associated protein [1]: inhibits the degradation of microtubule-associated protein
2 | CC(=O)N[C@@H](CC(C)C)C(=O)N[C@@H](CC(C)C)C(=O)N[C@H](C=O)CCCNC(=N)N [leupetin] | – | – | – | – | axon protection [2]: can protect axon
3 | CCOC(=O)[C@H]1O[C@@H]1C(=O)N[C@@H](CC(C)C)C(=O)NCCC(C)C [E-64-d] | – | – | – | – | life-prolonging effect [3]: life-prolonging effect; aggregation of platelet [4]: suppressed aggregation of platelet
4 | NC(N)=NCCCCNC(=O)[C@H](Cc1ccccc1)NC(=O)[C@H]1O[C@@H]1C(=O)O [Estatin A] | – | – | – | – | production of IgE (production of IgE): specifically inhibit the production of IgE; production of IgG (production of IgE): without affecting on the production of IgG; calcium concentration in blood [5]: decrease; hydroxyproline concentration in blood [5]: decrease
5 | CCCC[C@H](NC(=O)[C@H](CC(C)C)NC(=O)OCC1CCCCC1)C(O)c1c(-c2ccccc2)c1=O (stereo partly drawn) [94 (No. 280), 2-[(2S)-2-((S)-2-cyclohexylmethoxycarbonylamino-4-methylvalerylamino)-1-hydroxyhexyl]-3-phenylcyclopropenone] | 0.074 | 1 | 0.062 | 2.7 | –
6 | CC(C)C[C@H](NC(=O)[C@H]1O[C@@H]1C(=O)O)C(=O)NCCCCNC(=N)N [E-64] | – | – | – | – | effect on cataract (cataract animal models): effective on cataract; calcium concentration in blood [5]: decrease; hydroxyproline concentration in blood [5]: decrease
7 | CCCC[C@H](NC(=O)[C@H](CC(C)C)NC(=O)OCc1ccccn1)C(O)c1c(-c2ccccc2)c1=O (stereo partly shown) [96 (No. 282)] | – | 28 | 4.6 | 5.7 | IC50 (papain): 7 µM
8 | CC(C)C[C@H](NC(=O)OCc1ccccc1)C(=O)N[C@@H](C(C)C)[C@@H](O)c1c(-c2ccccc2)c1=O [25 (No. 83), 2-[(1S, 2S)-2-((S)-2-benzyloxycarbonylamino-4-methylvalerylamino)-1-hydroxy-3-methylbutyl]-3-phenylcyclopropenone] | 13 | 32 | 5.7 | 2.1 | –
9 | CCOC(=O)[C@@H]1O[C@H]1C(=O)NC(CC(C)C)C(=O)N1CCN(Cc2ccc(OC)c(OC)c2OC)CC1.CCOC(=O)[C@@H]1O[C@H]1C(=O)NC(CC(C)C)C(=O)N1CCN(Cc2ccc(OC)c(OC)c2OC)CC1.O=S(=O)(O)O (stereo partly shown) [NCO-700] | – | – | – | – | effect on cardiac infarction [6]: effective on cardiac infarction
10 | CCCC[C@H](NC(=O)[C@H](CC(C)C)NC(=O)OCC1CCCCC1)C(O)c1c(-c2ccc([Si](C)(C)C)s2)c1=O (stereo partly drawn) [115 (No. 387), 2-[(2S)-2-((S)-2-cyclohexylmethoxycarbonylamino-4-methylvalerylamino)-1-hydroxy-1-hexyl]-3-(5-trimethylsilyl-2-thienyl)cyclopropenone] | 0.48 | – | – | – | IC50 (cathepsin B): 1.5 µM; IC50 (cathepsin L): 0.27 µM; IC50 (m-calpain): 11 µM
11 | CC(C)C[C@H](NC(=O)OCC1CCCCC1)C(=O)N[C@@H](C(C)C)C(O)c1cc1=O (stereo partly drawn) [4 (No. 4), 2-[(2S)-2-((S)-2-cyclohexylmethoxycarbonylamino-4-methylvalerylamino)-1-hydroxy-3-methylbutyl]cyclopropenone] | 5.8 | 0.41 | – | 0.5 | –
12 | CC(C)C[C@H](NC(=O)OCc1ccccc1)C(=O)N[C@@H](CC(C)C)C(O)c1cc1=O (stereo partly drawn) [5 (No. 10), 2-[(2S)-2-((S)-2-benzyloxycarbonylamino-4-methylvalerylamino)-1-hydroxy-4-methylpentyl]cyclopropenone] | > 100 | 3 | 0.75 | 2.3 | –
13 | CCCC[C@H](NC(=O)[C@H](CC(C)C)NC(=O)OCC1CCCCC1)C(O)c1cc1=O (stereo partly drawn) [6 (No. 15), 2-[(2S)-2-((S)-2-cyclohexylmethoxycarbonylamino-4-methylvalerylamino)-1-hydroxyhexyl]cyclopropenone] | 0.076 | 0.16 | 0.54 | 0.81 | –
14 | CC(C)C[C@H](NC(=O)OCc1ccccc1)C(=O)N[C@@H](C(C)C)C(O)c1c(-c2ccccc2)c1=O (stereo partly drawn) [26 (No. 83), 2-[(2S)-2-((S)-2-benzyloxycarbonylamino-4-methylvalerylamino)-1-hydroxy-3-methylbutyl]-3-phenylcyclopropenone] | 4.2 | 43 | 5.8 | 1.6 | –
15 | CCCC[C@H](NC(=O)[C@H](CC(C)C)NC(=O)OCC1CCCCC1)C(O)c1c(-c2ccc([Si](C)(C)C)o2)c1=O (stereo partly drawn) [114 (No. 376), 2-[(2S)-2-((S)-2-cyclohexylmethoxycarbonylamino-4-methylvalerylamino)-1-hydroxy-1-hexyl]-3-(5-trimethylsilyl-2-furil)cyclopropenone] | 0.68 | – | – | – | IC50 (cathepsin B): 2.5 µM; IC50 (cathepsin L): 0.58 µM; IC50 (m-calpain): 5.6 µM
16 | CCCC[C@H](NC(=O)[C@H](CC(C)C)NC(=O)OCc1ccccc1)C(O)c1c(-c2ccccc2)c1=O (stereo partly drawn) [95 (No. 281), 2-[(2S)-2-((S)-2-benzyloxycarbonylamino-4-methylvalerylamino]-1-hydroxyhexyl]-3-phenylcyclopropenone] | 13 | 11 | 1.27 | 3 | –
17 | CCCC[C@H](NC(=O)[C@H](CC(C)C)NC(=O)OCc1ccccc1)C(O)c1cc1=O (stereo partly drawn) [7 (No. 16), 2-[(2S)-2-((S)-2-benzyloxycarbonylamino-4-methylvalerylamino)-1-hydroxyhexyl]cyclopropenone] | 0.14 | 0.32 | 0.24 | 2.4 | –
18 | CC(C)C[C@H](NC(=O)OCC1CCCCC1)C(=O)N[C@@H](C(C)C)[C@@H](O)c1c(-c2ccccc2)c1=O [1 (No. 77), 2-[(1S,2S)-2-{(s)-2-cyclohexylmethoxycarbonylamino-4-methylvalerylamino}-1-hydroxy-3-methylbuthyl]-3-phenylcyclopropenone] | 0.054 | 0.71 | 0.00086 | 1.6 | LD50 at 168 h [7]: > 2000 mg/kg
19 | CC(C)C[C@H](NC(=O)OCC1CCCCC1)C(=O)N[C@@H](C(C)C)[C@H](O)c1c(-c2ccccc2)c1=O [2 (No. 77), 2-[(1R, 2S)-2-{(S)-2-cyclohexylmethoxycarbonylamino-4-methylvalerylamino}-1-hydroxy-3-methylbutyl]-3-phenylcyclopropenone] | 22 | 0.044 | 0.0012 | 3.3 | –
